Target: PDE V (Homo sapiens, UniProt O76074)
Test: PDE V enzyme inhibition (PDE V IC50)
Format: biochemical

IC50 [nM]	SMILES
15 to 100	COc1ccc(Cn2c(NC3CCCC3CO)nc3c2c(=O)n(C)c(=O)n3C)cc1 (centres unmarked) [Compound 13]
5 to 10	COc1ccc(Cn2c(N[C@@H]3CCc4ccccc43)nc3c2c(=O)n(C)c(=O)n3C)cc1 [Compound 95]
